From patent US9045474B2, “Compounds and compositions for mitigating tissue damage and lethality” (The Regents of the University of California, priority 2010, dated 2015)

What was measured:
C3H mice = experiment: Mitigation of radiation-induced lethality in C3H mice (8Gy, LD100/30); conditions: 8Gy; 75 mg/kg at 1 hr and 25 hrs post exposure; past 30 days; first small study
Experimental: Radiomitigation studies were conduced by pre-treating C3H mice with the compounds of interest at as concentration of 75 mg/kg and at 24 hrs and 1 hr before an 8 Gy exposure. On a 5×24 mitigation treatment protocol mice were first lethally irradiated with 8 Gy and 24 hrs later received the first subcutaneous injection with the compound suspension with subsequent injections at 48, 72, 96, and 120 hrs. The concentration of the compound in the suspension was 75 mg/kg carrier with either 1N saline or phosphate buffer solution (PBS).
C3H mice in the mitigation experiment were irradiated with 8Gy and then injected with 75 mg/kg 1 hr post exposure and then again 25 hrs post exposure.

[1] = Preliminary studies of Targeted Library analogs (DEL/Survival assay); type: cell-based
Description: Analogues within at least 70% or greater similarity as defined by the Tanimoto rule of similarity are believed to have similar results as the aforementioned compounds in this application. […] Other structures within this limitation (Tanimoto rule of similarity as described and positive in DEL/Survival assay) are included. The DEL Assay, which is further described below, has established itself not only as a effective tool in carcinogenic activity detection but also as an effective methodology in establishing DNA protective properties against insults such as free radicals and ionizing radiation (see, e.g., Sobol, Z., et al., Mutation Research/Fundamental and Molecular Mechanisms of Mutagenesis, 2008. 638(1-2): p. 83-89, Hafer, K., Rivina, L., Schiestl, R H. Yeast DEL assay detects protection against radiation induced cytotoxicity and genotoxicity—adaptation of a microtiter plate version, Radiation Research, 2010, 174(6):719-26)). Thus, the DEL Assay is a reliable tool for the prediction of genotoxic and cytotoxic modulating agents. These agents also include, but are not limited to, ionizing radiation, UV radiation, environmental carcinogenesis, genetic instability, etc.
Compounds in the Targeted Library are selected as a development candidate using the Tanimoto coefficient. […]

yeast S. cerevisiae = experiment: Yeast DNA deletions (reversion to histidine prototrophy) after γ-rays; type: cell-based, Saccharomyces cerevisiae; conditions: data not shown
[2] = tested on: Human lymphoblastoid cells; experiment: Colony survival assay after ionizing radiation; type: cell-based; conditions: data not shown
mouse peripheral blood = tested on: mouse peripheral blood
Experimental: In this study, we examined the role of N-acetyl-L-cysteine (NAC), a clinically proven safe agent, for it's ability to protect against γ-ray-induced DNA strand breaks and/or DNA deletions in yeast and mammals. In the yeast S. cerevisiae, DNA deletions were scored by reversion to histidine prototrophy. Human lymphoblastoid cells were examined for the frequency of γ-H2AX foci formation, indicative of DNA double strand break formation. DNA strand breaks were also measured in mouse peripheral blood by the alkaline comet assay.

[3] = tested on: Human lymphoblastoid cells; experiment: γ-H2AX foci formation after ionizing radiation; type: cell-based; conditions: data not shown
Yeast cells = experiment: DEL assay, antioxidant radioprotection by yeast growth phase; type: cell-based, Saccharomyces cerevisiae
Description: In this study we used the DEL assay to measure gamma-ray induced DNA deletions throughout different phases of yeast culture growth. While yeast survival only differed by as much as two fold throughout the yeast growth phase, proliferating cells in lag and early exponential growth phases were ten-fold more sensitive to ionizing radiation-induced DNA deletions than cells in stationary growth. […] The ability of antioxidants L-ascorbic acid and DMSO to protect against radiation-induced DNA deletions was also measured within the different phases of yeast culture growth. […] This knowledge was used for the screening of radioprotectors.

[4] = lag and early exponential growth phases
[5] = non-dividing cells in stationary phase

SMILES: NCCCNCCSP(=O)(O)O [Amifostine, reference compound]
- mice survived LD100/30 irradiation (C3H mice): 33%

SMILES: Cc1sc(NC(=O)CN(Cc2ccccc2)C(=O)c2ccccc2)c(C(N)=O)c1C [2-[2-(Benzoyl-benzyl-amino)-acetylamino]-4,5-dimethyl-thiophene-3-carboxylic acid amide]
- activity in preliminary studies [1]: shown activity

SMILES: CC(=O)N[C@@H](CS)C(=O)O [NAC, N-acetyl-L-cysteine]
- frequency of IR-induced DNA deletions (yeast S. cerevisiae): reduced the frequency of IR-induced DNA deletions
- protection against cell death (yeast S. cerevisiae): did not protect against cell death
- protective effect in colony survival [2]: no protective effect
- genotoxicity of treatment alone (mouse peripheral blood; mouse, in vivo): not genotoxic
- protection against DNA strand breaks (mouse peripheral blood; via drinking water, whole-body irradiated with 1 Gy): fully protected against DNA strand breaks
- γ-H2AX foci formation [3]: reduced γ-H2AX foci formation

SMILES: O=C1O[C@H]([C@@H](O)CO)C(O)=C1O [L-ascorbic acid]
- protection against radiation-induced DNA deletions (Yeast cells; [4]): protected
- protection against radiation-induced DNA deletions (Yeast cells; [5]): could not be protected

SMILES: C[S+](C)[O-] [DMSO]
- protection against radiation-induced DNA deletions (Yeast cells; [4]): protected
- protection against radiation-induced DNA deletions (Yeast cells; [5]): could not be protected
